The text below walks through data of ChEMBL document CHEMBL5257055, “Contemporary Progress and Opportunities in RNA-Targeted Drug Discovery” (ACS Med Chem Lett, 2023).

Numbered stars: 1 amine (or outer) side, 2 acyl side, 3 side chain; on linkers, the order of the positions; unused ones are H or OH. Bridge positions count the residues as written; N and C are the ends. Peptide text beside a SMILES is read from it. X1 = CCC(C)CCCCCCCCC(CC(=O)[*:1])O[*:2]

Assay [1] in a line: Binding affinity to pre-miR-21 (unknown origin) assessed as dissociation constant.
Assay [2] can be described thus: Binding affinity to SARS-CoV-2 Attenuator hairpin RNA by MST assay. Details: species or system Severe acute respiratory syndrome coronavirus 2.
Assay [3] is described as follows: Binding affinity to pre-mRNA (unknown origin).
Assay [4] in a line: Binding affinity to preQ1.
Assay [5] can be described thus: Binding affinity to HCV IRES. Also on record: species or system Hepacivirus hominis.
A short description of assay [6]: Binding affinity to r(AUUCA) repeat RNA (unknown origin) assessed as dissociation constant.
Assay [7] in a line: Binding affinity to mouse MALAT1 assessed as dissociation constant.
A short description of assay [8]: Binding affinity to pre-miR-200c (unknown origin) assessed as dissociation constant.
A short description of assay [9]: Binding affinity to HCV RNA. Details: species or system Hepacivirus hominis.
Assay [10] in a line: Binding affinity to XIST RNA (unknown origin).
Assay [11] in a line: Binding affinity to CUG repeat RNA (unknown origin) assessed as dissociation constant.
A short description of assay [12]: Binding affinity to HIV-1 RNA assessed as dissociation constant. Details: species or system Human immunodeficiency virus 1.
Assay [13] can be described thus: Binding affinity to pre-miR-96 (unknown origin) assessed as dissociation constant.
A short description of assay [14]: Binding affinity to pre-miR-210 (unknown origin) assessed as dissociation constant.
Assay [15] in a line: Binding affinity to CGG repeat RNA (unknown origin) assessed as dissociation constant.
The target in assay [16] is T1, Sulfhydryl oxidase 1 (Homo sapiens, UniProt O00391).
T1 sequence (O00391 whole entry): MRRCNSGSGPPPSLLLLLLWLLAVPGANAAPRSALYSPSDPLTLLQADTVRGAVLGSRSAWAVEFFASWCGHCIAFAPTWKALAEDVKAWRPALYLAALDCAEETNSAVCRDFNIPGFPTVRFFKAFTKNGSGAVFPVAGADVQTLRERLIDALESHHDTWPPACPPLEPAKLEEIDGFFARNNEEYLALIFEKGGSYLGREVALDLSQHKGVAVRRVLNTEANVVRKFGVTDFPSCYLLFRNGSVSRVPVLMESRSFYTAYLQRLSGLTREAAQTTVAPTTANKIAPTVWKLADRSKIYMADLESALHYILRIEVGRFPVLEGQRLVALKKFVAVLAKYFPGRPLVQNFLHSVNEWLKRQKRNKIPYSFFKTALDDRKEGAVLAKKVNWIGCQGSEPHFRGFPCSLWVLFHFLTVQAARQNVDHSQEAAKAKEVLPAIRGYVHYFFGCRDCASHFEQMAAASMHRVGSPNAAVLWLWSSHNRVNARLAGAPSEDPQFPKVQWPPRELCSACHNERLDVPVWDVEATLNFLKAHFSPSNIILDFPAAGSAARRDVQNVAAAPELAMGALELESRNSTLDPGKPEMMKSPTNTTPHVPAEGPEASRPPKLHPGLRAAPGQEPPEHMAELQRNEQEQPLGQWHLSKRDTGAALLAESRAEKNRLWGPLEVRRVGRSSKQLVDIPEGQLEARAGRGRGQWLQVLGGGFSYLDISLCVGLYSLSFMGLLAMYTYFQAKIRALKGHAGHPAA
Briefly: Binding affinity to QSOX1 (unknown origin) assessed as dissociation constant.

A short description of assay [17]: Binding affinity to pre-miR-27a (unknown origin) assessed as dissociation constant.
Assay [18] has as its system FMN riboswitch. The experiment in a line: Binding affinity to Escherichia coli FMN riboswitch RNA assessed as dissociation constant. The format is nucleic-acid assay.
Assay [19] is described as follows: Binding affinity to CAG repeat RNA (unknown origin) assessed as dissociation constant.
A short description of assay [20]: Binding affinity to pre-miR-544 (unknown origin) assessed as dissociation constant.

What is called Kd is the free concentration of one partner at which half of the binding sites on the other are occupied at equilibrium, for simple one-to-one binding.

For the compound `CCC(C)CCCCCCCCC1CC(=O)N[C@@H](CCC(=O)O)C(=O)N[C@@H](CC(C)C)C(=O)N[C@@H](CC(C)C)C(=O)N[C@@H](C(C)C)C(=O)N[C@@H](CC(=O)O)C(=O)N[C@@H](CC(C)C)C(=O)N[C@@H](CC(C)C)C(=O)O1` (stereo partly drawn) (ELLVDLL; linker N-C via X1), in assay [1], the Kd amounted to 780 nM.

`CNc1nc(Nc2cccc(C(=O)O)c2)nc2ccccc12` returned a dissociation constant Kd in [2] of 11 nM.

As to `O=C1c2c(O)ccc(O)c2C(=O)c2c(NCCNCCO)ccc(NCCNCCO)c21` [MITOXANTRONE], the values for the Kd in [3] and in assay [1] were less than 1000 nM and 33 nM, respectively.

In turn, `NCCOc1ccc2oc3ccccc3c2c1` gave a Kd in [4] of 500 nM.

As to `O=C(NCCN1CCCC1)c1ccc2oc(C(=O)c3cc(O)c(O)c(O)c3)cc2c1`, the Kd in assay [5] is 360 nM.

For `CN(C)CC1COc2ccc3nc4n(c3c2C1)CC(CN(C)C)CN4` (stereo not drawn), the Kd in assay [5] is 720 nM.

Take `N=C(N)c1ccc(-c2ccc(-c3ccc(C(=N)N)cc3)o2)cc1` [FURAMIDINE]: the Kd was 170 nM in assay [6] and 560 nM in assay [7].

Take `O=C(Nc1ccc(C2=NCCN2)cc1)c1cc(C(=O)Nc2ccc(C3=NCCN3)cc2)cc(C(=O)Nc2ccc(C3=NCCN3)cc2)c1`: the Kd in assay [8] is 1100 nM; in assay [9], 849 nM.

In assay [10], `c1ccc(COc2cccc(-c3ccc4[nH]nc(-c5nc6ccccc6[nH]5)c4c3)c2)cc1` returned an equilibrium dissociation constant (Kd) of 400 nM.

As to `NC(=O)CNC(=O)[C@H](Cc1ccc(Cl)cc1)NC(=O)c1ccc2nc(-c3ccccc3)[nH]c2c1`, the Kd in assay [11] amounted to 6300 nM.

Turning to `C#CCCC1(CCC(=O)Nc2ccc(OC)c(OCc3cn4ccccc4n3)c2)N=N1`, the Kd in assay [1] was 256 nM.

On to `CC(=O)c1c(C)c2cnc(Nc3ccc(N4CCNCC4)cn3)nc2n(C2CCCC2)c1=O` [PALBOCICLIB], for which the Kd in assay [12] came to 104 nM.

Turning to `COc1ccc(-c2cnc(NCc3cccc(OC)c3)n2C)cc1`, the Kd in assay [7] is 2900 nM.

For `CN1CCN(c2ccc3nc(-c4ccc5[nH]c(-c6cccc(OCCCC(=O)NCCCN=[N+]=[N-])c6)nc5c4)[nH]c3c2)CC1`, the Kd in assay [13] came to 1500 nM; in assay [11], 150 nM; in assay [14], 1700 nM; in [15], 375 nM.

As to `C#CCCC1(CCC(=O)N(C)[C@@H]2CC[C@H](c3ccc(Cl)c(Cl)c3)c3ccccc32)N=N1`, in assay [16], the Kd was found to be 16000 nM.

Consider `C#CCN(CC(N)=O)C(=O)C[C@@H](Cc1c[nH]c2ccccc12)NC(=O)[C@H]1CC(NC(=O)Cn2c(=O)[nH]c3ccccc3c2=O)CN1` (stereo partly drawn), for which the Kd in assay [17] came to 90 nM.

As to `CNc1ncc(CN2CCCC(c3nc(O)cc(-c4cccs4)n3)C2)cn1` (stereo not drawn), the dissociation constant Kd in [18] was determined as 16 nM.

Turning to `Cc1ccc(C(=O)N2Cc3ccccc3C[C@H]2C(N)=O)cc1NCc1c(F)ccc(O)c1F`, the Kd in assay [17] came to 94 nM.

For `N#Cc1c(N2CCCC2)nc(N)c2c(N)nc(N3CCCC3)cc12`, the Kd is 1400 nM in assay [19], 1000 nM in assay [20] and 125 nM in assay [11].

In assay [5], `CN(C)c1nc(N)c(C(=O)NC(=N)N)nc1C#Cc1ccccc1` gave a Kd of 520 nM.
